Test results reported in patent US9133158B2, “Bicyclic dihydroisoquinoline-1-one derivatives” (Hoffmann-La Roche Inc., priority 2011, dated 2015).
Values belong to the compound of their own block, whether it stands above or below them.

Legend:
human CYP11B1 = molecular target: T1, human CYP11B1 (Homo sapiens, UniProt P15538); test: G-402 cellular enzyme assay, human CYP11B1 (cortisol release, HTRF); type: cell-based; conditions: G-402 cells, 1 μM Deoxycortisol
T1 construct: expressed in transfected cells
T1 sequence (P15538 25-503): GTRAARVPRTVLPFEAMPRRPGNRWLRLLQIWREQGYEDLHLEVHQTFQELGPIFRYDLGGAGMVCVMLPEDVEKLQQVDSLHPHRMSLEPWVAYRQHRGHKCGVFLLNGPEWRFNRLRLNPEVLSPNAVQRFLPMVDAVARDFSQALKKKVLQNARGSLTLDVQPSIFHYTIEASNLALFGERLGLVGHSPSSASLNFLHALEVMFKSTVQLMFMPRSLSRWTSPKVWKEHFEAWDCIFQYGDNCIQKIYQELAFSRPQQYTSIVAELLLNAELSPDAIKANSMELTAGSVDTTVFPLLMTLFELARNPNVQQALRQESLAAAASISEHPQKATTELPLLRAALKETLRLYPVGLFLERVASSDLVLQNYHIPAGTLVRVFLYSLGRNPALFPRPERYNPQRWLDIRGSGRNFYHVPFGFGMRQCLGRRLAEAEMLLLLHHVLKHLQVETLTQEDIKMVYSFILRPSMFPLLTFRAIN
Procedure, shortened: (§1)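 G-402 cells stably expressing human CYP11B1 or CYP11B2, in DMEM/F12 with 2.5% charcoal-treated FCS, were incubated 16 h with test compound and substrate (1 μM 11-deoxycortisol for CYP11B1; 1 μM deoxycorticosterone for CYP11B2). Cortisol or aldosterone in supernatant was quantified by HTRF; EC50 from 4-parameter MMF fit.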

human CYP11B2 = molecular target: T2, human CYP11B2 (Homo sapiens, UniProt P19099); test: G-402 cellular enzyme assay, human CYP11B2 (aldosterone release, HTRF); type: cell-based; conditions: G-402 cells, 1 μM Deoxycorticosterone
T2 construct: expressed in transfected cells
T2 sequence (P19099 25-503): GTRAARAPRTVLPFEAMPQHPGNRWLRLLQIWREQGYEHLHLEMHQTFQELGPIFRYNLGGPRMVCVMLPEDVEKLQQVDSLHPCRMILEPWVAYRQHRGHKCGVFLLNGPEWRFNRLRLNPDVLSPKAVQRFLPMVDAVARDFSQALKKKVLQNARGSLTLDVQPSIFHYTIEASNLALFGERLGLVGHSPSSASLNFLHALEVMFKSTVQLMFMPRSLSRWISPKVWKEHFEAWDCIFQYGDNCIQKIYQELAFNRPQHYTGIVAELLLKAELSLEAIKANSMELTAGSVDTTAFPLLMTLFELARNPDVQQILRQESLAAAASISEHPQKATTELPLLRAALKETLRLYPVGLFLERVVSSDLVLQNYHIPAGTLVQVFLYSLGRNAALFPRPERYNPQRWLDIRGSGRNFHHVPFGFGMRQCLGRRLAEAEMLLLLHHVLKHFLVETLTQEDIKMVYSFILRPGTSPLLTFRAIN
Procedure, shortened: as §1

Structure (SMILES): CC(O)c1cncc(N2CCc3cc(Cl)ccc3C2=O)c1 (stereo not shown) [Example 13, 6-Chloro-2-[5-(1-hydroxy-ethyl)-pyridin-3-yl]-3,4-dihydro-2H-isoquinolin-1-one]
EC50 (human CYP11B1): 865 nM
EC50 (human CYP11B2): 54.3 nM

Structure (SMILES): C[C@H](O)c1cncc(N2CCc3cc(Cl)ccc3C2=O)c1 [Example 15, 6-Chloro-2-[5-((S)-1-hydroxy-ethyl)-pyridin-3-yl]-3,4-dihydro-2H-isoquinolin-1-one]
EC50 (human CYP11B1): 913 nM
EC50 (human CYP11B2): 68.2 nM

Structure (SMILES): Nc1cncc(N2CCc3cc(Cl)ccc3C2=O)c1 [Example 17, 2-(5-Aminopyridin-3-yl)-6-chloro-3,4-dihydro-2H-isoquinolin-1-one]
EC50 (human CYP11B1): 14000 nM
EC50 (human CYP11B2): 597 nM

Structure (SMILES): O=C1c2ccc(Cl)cc2CCN1c1cncc(C(O)C(F)(F)F)c1 (stereo not shown) [Example 18, 6-Chloro-2-[5-(2,2,2-trifluoro-1-hydroxy-ethyl)-pyridin-3-yl]-3,4-dihydro-2H-isoquinolin-1-one]
EC50 (human CYP11B1): 507 nM
EC50 (human CYP11B2): 58.6 nM

Structure (SMILES): COC(c1cncc(N2CCc3cc(Cl)ccc3C2=O)c1)C(F)(F)F (stereo not shown) [Example 19, 6-Chloro-2-[5-(2,2,2-trifluoro-1-methoxy-ethyl)-pyridin-3-yl]-3,4-dihydro-2H-isoquinolin-1-one]
EC50 (human CYP11B1): 198 nM
EC50 (human CYP11B2): 60.3 nM

Structure (SMILES): O=C1c2ccc(Cl)cc2CCN1c1cncc(C(O)c2cc(F)cc(F)c2)c1 (stereo not shown) [Example 32, 6-Chloro-2-{5-[(3,5-difluoro-phenyl)-hydroxy-methyl]-pyridin-3-yl}-3,4-dihydro-2H-isoquinolin-1-one]
EC50 (human CYP11B1): 514 nM
EC50 (human CYP11B2): 46.8 nM

Structure (SMILES): CCc1ccc(C(O)c2cncc(N3CCc4cc(Cl)ccc4C3=O)c2)cc1 (stereo not shown) [Example 33, 6-Chloro-2-{5-[(4-ethyl-phenyl)-hydroxy-methyl]-pyridin-3-yl}-3,4-dihydro-2H-isoquinolin-1-one]
EC50 (human CYP11B1): 485 nM
EC50 (human CYP11B2): 210 nM

Structure (SMILES): O=C1c2ccc(Cl)cc2CCN1c1cncc(C(O)c2ccccc2)c1 (stereo not shown) [Example 34, 6-Chloro-2-[5-(hydroxy-phenyl-methyl)-pyridin-3-yl]-3,4-dihydro-2H-isoquinolin-1-one]
EC50 (human CYP11B1): 287 nM
EC50 (human CYP11B2): 31.6 nM

Structure (SMILES): CC(O)(c1ccccc1)c1cncc(N2CCc3cc(Cl)ccc3C2=O)c1 (stereo not shown) [Example 35, 6-Chloro-2-[5-(1-hydroxy-1-phenyl-ethyl)-pyridin-3-yl]-3,4-dihydro-2H-isoquinolin-1-one]
EC50 (human CYP11B1): 146 nM
EC50 (human CYP11B2): 18.8 nM

Structure (SMILES): CC(O)(c1cncc(N2CCc3cc(Cl)ccc3C2=O)c1)c1ccc(F)c(F)c1 (stereo not shown) [Example 36, 6-Chloro-2-{5-[1-(3,4-difluoro-phenyl)-1-hydroxy-ethyl]-pyridin-3-yl}-3,4-dihydro-2H-isoquinolin-1-one]
EC50 (human CYP11B1): 188 nM
EC50 (human CYP11B2): 14 nM

Structure (SMILES): CC(O)(c1cc(F)cc(F)c1)c1cncc(N2CCc3cc(Cl)ccc3C2=O)c1 (stereo not shown) [Example 37, 6-Chloro-2-{5-[1-(3,5-difluoro-phenyl)-1-hydroxy-ethyl]-pyridin-3-yl}-3,4-dihydro-2H-isoquinolin-1-one]
EC50 (human CYP11B1): 149 nM
EC50 (human CYP11B2): 9.2 nM

Structure (SMILES): O=C(c1cncc(N2CCc3cc(Cl)ccc3C2=O)c1)N1CCOCC1 [Example 39, 6-Chloro-2-[5-(morpholine-4-carbonyl)-pyridin-3-yl]-3,4-dihydro-2H-isoquinolin-1-one]
EC50 (human CYP11B1): 10000 nM
EC50 (human CYP11B2): 1090 nM

Structure (SMILES): O=C(c1cncc(N2CCc3cc(Cl)ccc3C2=O)c1)N1CCC(O)C1 (stereo not shown) [Example 40, 6-Chloro-2-[5-(3-hydroxy-pyrrolidine-1-carbonyl)-pyridin-3-yl]-3,4-dihydro-2H-isoquinolin-1-one]
EC50 (human CYP11B1): 10500 nM
EC50 (human CYP11B2): 1680 nM

Structure (SMILES): CN(C)C(=O)c1cncc(N2CCc3cc(Cl)ccc3C2=O)c1 [Example 41, 5-(6-Chloro-1-oxo-3,4-dihydro-1H-isoquinolin-2-yl)-N,N-dimethyl-nicotinamide]
EC50 (human CYP11B1): 6080 nM
EC50 (human CYP11B2): 3750 nM

Structure (SMILES): O=C(Nc1ccccc1)c1cncc(N2CCc3cc(Cl)ccc3C2=O)c1 [Example 46, 5-(6-Chloro-1-oxo-3,4-dihydro-1H-isoquinolin-2-yl)-N-phenyl-nicotinamide]
EC50 (human CYP11B1): 13900 nM
EC50 (human CYP11B2): 698 nM

Structure (SMILES): O=C(c1cncc(N2CCc3cc(Cl)ccc3C2=O)c1)N1CCC(F)(F)CC1 [Example 47, 6-Chloro-2-[5-(4,4-difluoro-piperidine-1-carbonyl)-pyridin-3-yl]-3,4-dihydro-2H-isoquinolin-1-one]
EC50 (human CYP11B1): 23200 nM
EC50 (human CYP11B2): 1030 nM

Further lines, results first:

EC50 (human CYP11B1): 1100 nM
EC50 (human CYP11B2): 55 nM
Structure (SMILES): C[C@@H](O)c1cncc(N2CCc3cc(Cl)ccc3C2=O)c1 [Example 14, 6-Chloro-2-[5-((R)-1-hydroxy-ethyl)-pyridin-3-yl]-3,4-dihydro-2H-isoquinolin-1-one]

EC50 (human CYP11B1): 126 nM
EC50 (human CYP11B2): 19.3 nM
Structure (SMILES): COC(C)c1cncc(N2CCc3cc(Cl)ccc3C2=O)c1 (stereo not shown) [Example 16, 6-Chloro-2-[5-(1-methoxy-ethyl)-pyridin-3-yl]-3,4-dihydro-2H-isoquinolin-1-one]

EC50 (human CYP11B1): 1050 nM
EC50 (human CYP11B2): 85.9 nM
Structure (SMILES): O=C1c2ccc(Cl)cc2CCN1c1cncc(C(O)C2CC2)c1 (stereo not shown) [Example 20, 6-Chloro-2-[5-(cyclopropyl-hydroxy-methyl)-pyridin-3-yl]-3,4-dihydro-2H-isoquinolin-1-one]

EC50 (human CYP11B1): 263 nM
EC50 (human CYP11B2): 41.5 nM
Structure (SMILES): COC(c1cncc(N2CCc3cc(Cl)ccc3C2=O)c1)C1CC1 (stereo not shown) [Example 21, 6-Chloro-2-[5-(cyclopropyl-methoxy-methyl)-pyridin-3-yl]-3,4-dihydro-2H-isoquinolin-1-one]

EC50 (human CYP11B1): 517 nM
EC50 (human CYP11B2): 55.7 nM
Structure (SMILES): O=C1c2ccc(Cl)cc2CCN1c1cnccc1C(F)(F)F [Example 22, 6-Chloro-2-(4-trifluoromethyl-pyridin-3-yl)-3,4-dihydro-2H-isoquinolin-1-one]

EC50 (human CYP11B1): 571 nM
EC50 (human CYP11B2): 64 nM
Structure (SMILES): O=C1c2ccc(Cl)cc2CCN1c1cncc(CCO)c1 [Example 23, 6-Chloro-2-[5-(2-hydroxy-ethyl)-pyridin-3-yl]-3,4-dihydro-2H-isoquinolin-1-one]

EC50 (human CYP11B1): 21.4 nM
EC50 (human CYP11B2): 5.6 nM
Structure (SMILES): COC(C)(C)c1cncc(N2CCc3cc(Cl)ccc3C2=O)c1 [Example 24, 6-Chloro-2-[5-(1-methoxy-1-methyl-ethyl)-pyridin-3-yl]-3,4-dihydro-2H-isoquinolin-1-one]

EC50 (human CYP11B1): 8150 nM
EC50 (human CYP11B2): 321 nM
Structure (SMILES): O=C1CCCN1c1cncc(N2CCc3cc(Cl)ccc3C2=O)c1 [Example 26, 6-Chloro-2-[5-(2-oxo-pyrrolidin-1-yl)-pyridin-3-yl]-3,4-dihydro-2H-isoquinolin-1-one]

EC50 (human CYP11B1): 731 nM
EC50 (human CYP11B2): 75.3 nM
Structure (SMILES): Cn1ncc2c(N3CCc4cc(Cl)ccc4C3=O)cncc21 [Example 27, 6-Chloro-2-(1-methyl-1H-pyrazolo[3,4-c]pyridin-4-yl)-3,4-dihydro-2H-isoquinolin-1-one]

EC50 (human CYP11B1): 757 nM
EC50 (human CYP11B2): 104 nM
Structure (SMILES): O=C1c2ccc(Cl)cc2CCN1c1cncc2c1CCCC2O (stereo not shown) [Example 28, 6-Chloro-8′-hydroxy-3,4,5′,6′,7′,8′-hexahydro-[2,4′]biisoquinolinyl-1-one]

EC50 (human CYP11B1): 12900 nM
EC50 (human CYP11B2): 318 nM
Structure (SMILES): CCC(=O)NC1CCCc2c1cncc2N1CCc2cc(Cl)ccc2C1=O (stereo not shown) [Example 29, N-(6-Chloro-1-oxo-3,4,5′,6′,7′,8′-hexahydro-1H-[2,4′]biisoquinolinyl-8′-yl)-propionamide]

EC50 (human CYP11B1): 2070 nM
EC50 (human CYP11B2): 751 nM
Structure (SMILES): Cn1ccnc1C(O)c1cncc(N2CCc3cc(Cl)ccc3C2=O)c1 (stereo not shown) [Example 30, 6-Chloro-2-{5-[hydroxy-(1-methyl-1H-imidazol-2-yl)-methyl]-pyridin-3-yl}-3,4-dihydro-2H-isoquinolin-1-one]

EC50 (human CYP11B1): 328 nM
EC50 (human CYP11B2): 50.2 nM
Structure (SMILES): O=C1c2ccc(Cl)cc2CCN1c1cncc(C(O)c2ccc(F)c(F)c2)c1 (stereo not shown) [Example 31, 6-Chloro-2-{5-[(3,4-difluoro-phenyl)-hydroxy-methyl]-pyridin-3-yl}-3,4-dihydro-2H-isoquinolin-1-one]

EC50 (human CYP11B1): 8390 nM
EC50 (human CYP11B2): 1070 nM
Structure (SMILES): Cc1cncc(N2CCc3cc(Cl)ccc3C2=O)n1 [Example 38, 6-Chloro-2-(6-methyl-pyrazin-2-yl)-3,4-dihydro-2H-isoquinolin-1-one]

EC50 (human CYP11B1): 7860 nM
EC50 (human CYP11B2): 327 nM
Structure (SMILES): O=C(c1cncc(N2CCc3cc(Cl)ccc3C2=O)c1)N1CCCC1 [Example 42, 6-Chloro-2-[5-(pyrrolidine-1-carbonyl)-pyridin-3-yl]-3,4-dihydro-2H-isoquinolin-1-one]

EC50 (human CYP11B1): 16900 nM
EC50 (human CYP11B2): 5930 nM
Structure (SMILES): O=C(NC1CC1)c1cncc(N2CCc3cc(Cl)ccc3C2=O)c1 [Example 44, 5-(6-Chloro-1-oxo-3,4-dihydro-1H-isoquinolin-2-yl)-N-cyclopropyl-nicotinamide]
